Assay results: patent EP2138169B1, “Transdermal delivery system of hormones without penetration enhancers” (Bayer Intellectual Property GmbH, priority 2003, dated 2005)

Key:
clinical = assay: clinical; parameters: species or system women; conditions: female, human, in vivo
Description: The effect on ovulation inhibition, serum drug concentrations and safety of a patch of the invention was investigated in a selected population of women. The study design was based on the requirements of the EMEA quideline for clinical studies with contraceptive steroids (Commitee for Proprietary Medicinal Products, CPMP/EWP 519/98).
Arcare MA-24A® is a polyisobutylene based adhesive from Adhesive Research.
The treatment phase includes a period of two menstrual cycles. The first treatment in the first cycle began one day after the volunteers started menstruating in this cycle by application of a patch. A total of three test patches were applied in intervals of 7 days between, such as application at days 1, 8 and 15 of the first cycle - each at different application sites- during each treatment cycle. Each patch was worn for 7 days, then replaced with a new patch to complete a total of 21 days of continuous use. This was followed by a 7-day treatment-free interval before the next treatment period started with a total of three patches applied, each applied with an interval of 7 days. If the patches were lost or became more than 40% detached, a new patch was applied.
The AUC was calculated according to the linear trapezoidal rule. […]
After incubation and centrifugation, the resultant precipitate was redissolved with NaOH. The assay has a lower limit of quantification of approx. 250 pg/ml.

[1] = cited from earlier work

Cmax (clinical; Cmax (mean) of ethinyl estradiol (EE)) | Tmax (clinical; Tmax (mean) of ethinyl estradiol (EE)) | SMILES | Maximal plasma levels ([1]; US 5,376,377, ethylene vinyl acrylate adhesive layer, Gestodene and ethinylestradiol) | maximal plasma levels of Gestodene ([1]; WO 92/07590, transdermal compositions with penetration enhancers, Gestodene and an estrogen)
0.0456 ng/mL | 48 h | C#C[C@]1(O)CC[C@H]2[C@@H]3CCc4cc(O)ccc4[C@H]3CC[C@@]21C [Ethinylestradiol] | – | –
– | – | C#C[C@]1(O)C=C[C@H]2[C@@H]3CCC4=CC(=O)CC[C@@H]4[C@H]3CC[C@@]21CC [Gestodene, 13β-Ethyl-17α-ethynyl-17β-hydroxy-4,15-gonadien-3-one] | about 0.8 ng/ml | about 0.9 ng/ml
